ChEMBL document CHEMBL3867442, “Naphthalene Derivatives from the Roots of Pentas parvifolia and Pentas bussei” (2016)

Test: Cytotoxicity against human MDA-MB-231 cells after 72 hrs by alamar blue assay
Format: functional
Settings: MDA-MB-231, 72 h, read-out: LD50 (the source's name)

Which CC50 does the source give for `COc1c(C)c(O)cc2c1C(=O)c1ccccc1C2=O` here?
The CC50 was 54.4 µM.

For `COc1c(C=O)c(O)cc2c1C(=O)c1ccccc1C2=O` [DAMNACANTHAL], which CC50 is on record?
Its CC50 is over 352 µM.

With `COc1cc(C(=O)O)c(O)c2ccc3c(c12)[C@@H]1O[C@@H](OC)[C@H](C)[C@@H]2CC[C@](C)(O3)[C@@H]21` as the compound, how does the CC50 read?
The CC50 was 130 µM.

With `COC(=O)c1cc(OC)c2c(O)c(O)ccc2c1O` as the compound, how does the CC50 read?
The CC50 was 96.5 µM.

For `CCO[C@@H]1O[C@H]2c3c(ccc4c(O)c(C(=O)O)cc(OC)c34)O[C@@]3(C)CC[C@@H]([C@H]1C)[C@@H]23`, which CC50 is on record?
The CC50 was 62.3 µM.

Which CC50 does the source give for `COc1cc(C(=O)O)c(O)c2ccc3c(c12)C=CC(C)(CCC=C(C)C)O3` (stereo unspecified) [BUSSEIHYDROQUINONE C] here?
The CC50 was 48.4 µM.
